Source: US20250352555A1, “METHOD OF INCREASING IMMUNE CELL ACTIVATION AND/OR TREATING CANCER USING DIBENZOXAZEPINONES” (VASCULAR THERAPEUTICS PTY LTD, priority 2022, published 2025)
Values joined by “and” are separate entries in the source; they are usually repeats but may differ in a detail not shown here. Identical values can stand only once.

System: Jurkat T cells
Test: RNA-seq of Jurkat T cells
Type: cell-based, human
Experimental: RNA-seq and bioinformatics analysis. Jurkat T cells were grown to confluence in 100 mm plates in complete medium and incubated with 10 μM BT2 or vehicle for 4 h. Total RNA was extracted using the RNeasy Mini Kit (Qiagen, cat. no. 74004) with modification. Briefly, cells were washed twice with pre-cooled 1×PBS and TRIzol reagent (Thermo Fisher Scientific cat. no. 15596026) was added to lyse the cells. Chloroform was added to the mixture before microfuge centrifugation at 13000 rpm for 15 min at 4° C. The upper aqueous layer containing total RNA was transferred to fresh microtubes, and isopropanol was added and loaded into RNeasy columns. Columns were washed with buffers RW1 and RPE. Total RNA was eluted from the column using ribonuclease-free water. Samples were submitted to the UNSW Ramaciotti Centre for Genomics for TruSeq Stranded mRNA-seq preparation and sequencing by One NextSeq 500 1×75 bp high-output flow cell with data output up to 400 M reads. Quality control of samples was set at >80% higher than Q30 at 1×75 bp.
RNA-seq reads were first assessed for quality using the tool FastQC (v0.11.8) www.bioinformatics.babraham.ac.uk/projects/fastqc/). The tool Salmon was used for quantifying transcript abundance from RNA-seq reads (Patro et al., 2017). The R package DESeq2 that incorporates a method for differential analysis of count data was then used to identify differentially expressed genes across specific comparisons (Love et al., 2014). This package was also used to perform principal component analysis. […] The ggplot2 R package was used to prepare bar plots, scatter plots, and density plots. The pheatmap R package was used to generate distance matrices, and clustered heatmaps. DESeq2 output was used to generate a ranked list for input into GSEA Pre-ranked (v6.0.12, Broad Institute) (Subramanian et al., 2005) for pathway analysis against the Curated (Canonical Pathway), Gene Ontology, and Hallmarks gene collections from MSigDb (Liberzon et al., 2015; Liberzon et al., 2011). Ranked scores were calculated by multiplying the sign of the log 2 fold change by the log 10 transformed adjusted p value. […] All immune response related gene sets were selected for display.
To gain insights into BT2's mode of action we conducted next generation RNA sequencing (RNA-seq) with extracts of Jurkat T cells exposed to 10 μM BT2 for 4 h.

For `CCOC(=O)Nc1ccc2c(c1)C(=O)N(CC)c1ccccc1O2` [BT2, (10-ethyl-11-oxo-10,11-dihydro-dibenzo[b,f][1,4]oxazepin-2-yl)-carbamic acid ethyl ester], the “ABCA4 gene expression, BT2” value (10 μM BT2, 4 h, 3 replicates) was 96.05 and 85.74 and 106.5, the “ACTA2 gene expression, BT2” value (10 μM BT2, 4 h, 3 replicates) was 643.6 and 663.2 and 658.1 and the “ACTG2 gene expression, BT2” value (10 μM BT2, 4 h, 3 replicates) was 3514 and 3448 and 3526. For the same compound, the “ADAT3 gene expression, BT2 Test 1-3” value (10 μM BT2, 4 h, 3 replicates) was 32.66 and 24.79 and 20.09, the “ADCYAP1 gene expression, BT2” value (10 μM BT2, 4 h, 3 replicates) was 131.6 and 132.2 and 130.6 and the “ARHGAP29 gene expression, BT2” value (10 μM BT2, 4 h, 3 replicates) was 550.4 and 556.8 and 506.4. For the same compound, the “ATF3 gene expression, BT2” value (10 μM BT2, 4 h, 3 replicates) was 975.9 and 937 and 1003, the “BACH2 gene expression, BT2” value (10 μM BT2, 4 h, 3 replicates) was 6174.2608 and 6260 and 6009.3283 and the “CD248 gene expression, BT2” value (10 μM BT2, 4 h, 3 replicates) was 284.3 and 291.3 and 307.4. The “CREB5 gene expression, BT2” value (10 μM BT2, 4 h, 3 replicates) was 179.6 and 175.6 and 152.7, the “DMBT1 gene expression, BT2” value (10 μM BT2, 4 h, 3 replicates) was 193.1 and 180.8 and 166.8 and the “DUSP8 gene expression, BT2” value (10 μM BT2, 4 h, 3 replicates) was 826.1 and 821.3 and 847. For the same compound, the “ENPP1 gene expression, BT2” value (10 μM BT2, 4 h, 3 replicates) was 2289 and 2283 and 2244, the “EPAS1 gene expression, BT2” value (10 μM BT2, 4 h, 3 replicates) was 332.3 and 428.7 and 372.8 and the “FAM166A gene expression, BT2 Test 1-3” value (10 μM BT2, 4 h, 3 replicates) was 312.2 and 298.5 and 285.3. For the same compound, the “FERMT2 gene expression, BT2” value (10 μM BT2, 4 h, 3 replicates) was 3161.0909 and 3299 and 3249, the “FLNC gene expression, BT2” value (10 μM BT2, 4 h, 3 replicates) was 532.1 and 474.2 and 510.4 and the “GBP1 gene expression, BT2” value (10 μM BT2, 4 h, 3 replicates) was 6844 and 6940 and 6949. The “GBP2 gene expression, BT2” value (10 μM BT2, 4 h, 3 replicates) was 343.9 and 332.6 and 320.5, the “HIST1H2AC gene expression, BT2 Test 1-3” value (10 μM BT2, 4 h, 3 replicates) was 62.43 and 67.15 and 71.34 and the “HIST1H2AG gene expression, BT2 Test 1-3” value (10 μM BT2, 4 h, 3 replicates) was 51.87 and 40.29 and 74.35. For the same compound, the “HIST2H2BE gene expression, BT2 Test 1-3” value (10 μM BT2, 4 h, 3 replicates) was 35.54 and 54.75 and 51.24, the “IL2RA gene expression, BT2” value (10 μM BT2, 4 h, 3 replicates) was 168.1 and 193.2 and 169.8 and the “JUN gene expression, BT2” value (10 μM BT2, 4 h, 3 replicates) was 4079.3537 and 4087 and 4015. The “JUND gene expression, BT2” value (10 μM BT2, 4 h, 3 replicates) was 7851.3391 and 7882 and 7703, the “KCNMB1 gene expression, BT2” value (10 μM BT2, 4 h, 3 replicates) was 1036.4075 and 994.8 and 1082 and the “MAF gene expression, BT2 Test 1-3” value (10 μM BT2, 4 h, 3 replicates) was 49.95 and 50.62 and 48.23. The “MYL4 gene expression, BT2” value (10 μM BT2, 4 h, 3 replicates) was 896.2 and 889.4 and 904.3, the “NPAS4 gene expression, BT2” value (10 μM BT2, 4 h, 3 replicates) was 228.6 and 253.1 and 292.4 and the “NTN1 gene expression, BT2” value (10 μM BT2, 4 h, 3 replicates) was 0 and 193.2 and 146.7. The “PRKCE gene expression, BT2” value (10 μM BT2, 4 h, 3 replicates) was 1433 and 1537 and 1488, the “PRRT1 gene expression, BT2 Test 1-3” value (10 μM BT2, 4 h, 3 replicates) was 20.17 and 22.73 and 60.28 and the “SIRPB2 gene expression, BT2” value (10 μM BT2, 4 h, 3 replicates) was 112.4 and 120.9 and 128.6. For the same compound, the “SPECC1L-ADORA2A gene expression, BT2” value (10 μM BT2, 4 h, 3 replicates) was 209.4 and 316.1 and 206, the “TEAD3 gene expression, BT2” value (10 μM BT2, 4 h, 3 replicates) was 269.9 and 243.8 and 226.1 and the “TIMP3 gene expression, BT2” value (10 μM BT2, 4 h, 3 replicates) was 202.7 and 212.8 and 228.1. For the same compound, the “TUBA1A gene expression, BT2 Test 1-3” value (10 μM BT2, 4 h, 3 replicates) was 4998 and 5147 and 5169, the “TUBA1B gene expression, BT2 Test 1-3” value (10 μM BT2, 4 h, 3 replicates) was 50484.2833 and 49034.778 and 49379.7789 and the “TUBA1C gene expression, BT2 Test 1-3” value (10 μM BT2, 4 h, 3 replicates) was 9420 and 9004 and 9493. For the same compound, the “TUBA4A gene expression, BT2 Test 1-3” value (10 μM BT2, 4 h, 3 replicates) was 33.62 and 39.26 and 48.23, the “TUBB2A gene expression, BT2 Test 1-3” value (10 μM BT2, 4 h, 3 replicates) was 599.4 and 644.6 and 638 and the “TUBB3 gene expression, BT2 Test 1-3” value (10 μM BT2, 4 h, 3 replicates) was 651.2 and 705.6 and 639. The “TUBB4B gene expression, BT2 Test 1-3” value (10 μM BT2, 4 h, 3 replicates) was 6034 and 5953 and 6048, the “ZYX gene expression, BT2” value (10 μM BT2, 4 h, 3 replicates) was 3059 and 3209 and 3141 and the “ABCA4 log2Fold Change” value (10 μM BT2 vs vehicle, 4 h) was 2.991. For the same compound, the “ACTA2 log2Fold Change” value (10 μM BT2 vs vehicle, 4 h) was 1.228, the “ACTG2 log2Fold Change” value (10 μM BT2 vs vehicle, 4 h) was 2.581 and the “ADAT3 log2Fold Change” value (10 μM BT2 vs vehicle, 4 h) was −1.31. For the same compound, the “ADCYAP1 log2Fold Change” value (10 μM BT2 vs vehicle, 4 h) was 1.242, the “ARHGAP29 log2Fold Change” value (10 μM BT2 vs vehicle, 4 h) was 1.497 and the “ATF3 log2Fold Change” value (10 μM BT2 vs vehicle, 4 h) was 1.019. For the same compound, the “BACH2 log2Fold Change” value (10 μM BT2 vs vehicle, 4 h) was 1.126, the “CD248 log2Fold Change” value (10 μM BT2 vs vehicle, 4 h) was 2.579 and the “CREB5 log2Fold Change” value (10 μM BT2 vs vehicle, 4 h) was 1.577. For the same compound, the “DMBT1 log2Fold Change” value (10 μM BT2 vs vehicle, 4 h) was 1.424, the “DUSP8 log2Fold Change” value (10 μM BT2 vs vehicle, 4 h) was 3.811 and the “ENPP1 log2Fold Change” value (10 μM BT2 vs vehicle, 4 h) was 2.594. The “EPAS1 log2Fold Change” value (10 μM BT2 vs vehicle, 4 h) was 1.187, the “FAM166A log2Fold Change” value (10 μM BT2 vs vehicle, 4 h) was −1.443 and the “FERMT2 log2Fold Change” value (10 μM BT2 vs vehicle, 4 h) was 1.127. For the same compound, the “FLNC log2Fold Change” value (10 μM BT2 vs vehicle, 4 h) was 1.158, the “GBP1 log2Fold Change” value (10 μM BT2 vs vehicle, 4 h) was 1.317 and the “GBP2 log2Fold Change” value (10 μM BT2 vs vehicle, 4 h) was 1.999. The “HIST1H2AC log2Fold Change” value (10 μM BT2 vs vehicle, 4 h) was −1.445, the “HIST1H2AG log2Fold Change” value (10 μM BT2 vs vehicle, 4 h) was −1.417 and the “HIST2H2BE log2Fold Change” value (10 μM BT2 vs vehicle, 4 h) was −1.273. The “IL2RA log2Fold Change” value (10 μM BT2 vs vehicle, 4 h) was 2.06, the “JUN log2Fold Change” value (10 μM BT2 vs vehicle, 4 h) was 2.561 and the “JUND log2Fold Change” value (10 μM BT2 vs vehicle, 4 h) was 1.29. The “KCNMB1 log2Fold Change” value (10 μM BT2 vs vehicle, 4 h) was 1.455, the “MAF log2Fold Change” value (10 μM BT2 vs vehicle, 4 h) was −1.032 and the “MYL4 log2Fold Change” value (10 μM BT2 vs vehicle, 4 h) was 2.052. The “NPAS4 log2Fold Change” value (10 μM BT2 vs vehicle, 4 h) was 1.211, the “NTN1 log2Fold Change” value (10 μM BT2 vs vehicle, 4 h) was 6.501 and the “PRKCE log2Fold Change” value (10 μM BT2 vs vehicle, 4 h) was 1.177. The “PRRT1 log2Fold Change” value (10 μM BT2 vs vehicle, 4 h) was −1.322, the “SIRPB2 log2Fold Change” value (10 μM BT2 vs vehicle, 4 h) was 1.912 and the “SPECC1L-ADORA2A log2Fold Change” value (10 μM BT2 vs vehicle, 4 h) was 1.096. The “TEAD3 log2Fold Change” value (10 μM BT2 vs vehicle, 4 h) was 1.133, the “TIMP3 log2Fold Change” value (10 μM BT2 vs vehicle, 4 h) was 1.85 and the “TUBA1A log2Fold Change” value (10 μM BT2 vs vehicle, 4 h) was −1.19. The “TUBA1B log2Fold Change” value (10 μM BT2 vs vehicle, 4 h) was −1.394, the “TUBA1C log2Fold Change” value (10 μM BT2 vs vehicle, 4 h) was −1.121 and the “TUBA4A log2Fold Change” value (10 μM BT2 vs vehicle, 4 h) was −1.253. For the same compound, the “TUBB2A log2Fold Change” value (10 μM BT2 vs vehicle, 4 h) was −1.005, the “TUBB3 log2Fold Change” value (10 μM BT2 vs vehicle, 4 h) was −1.262 and the “TUBB4B log2Fold Change” value (10 μM BT2 vs vehicle, 4 h) was −1.52. The “ZYX log2Fold Change” value (10 μM BT2 vs vehicle, 4 h) was 1.537, the “effect on FOS like 2 expression” value (10 μM, 4 h) was “negligible effects” and the “effect on FOSB expression” value (10 μM, 4 h) was “negligible effects”. The “increase of DUSP8 mRNA expression” value (10 μM, 4 h) was 14.1 fold, the “increase of JUND levels” value (10 μM, 4 h) was 2.4 fold and the “increase of netrin-1 (NTN1)” value (10 μM, 4 h) was 90.6 fold. The “inhibition of MAF expression” value (10 μM, 4 h) was 2 fold and the JUN induction (10 μM, within 4 h) was 5.9 fold.
